Measured values published in ChEMBL document CHEMBL5365442, “A novel chalcone derivative exerts anticancer effects by promoting apoptotic cell death of human pancreatic cancer cells” (Bioorg Med Chem, 2023).
Calls of active or inactive are those of the source. No cut-off for these calls is given here.

Columns and labels:
[1] = tested on: BXPC-3; test: Antiproliferative activity against human BXPC-3 cells assessed as inhibition of cell growth incubated for 48 hrs by WST-1 assay; assay type: functional, cell-based; conditions: BXPC-3, 48 h
[2] = tested on: BXPC-3; test: Antiproliferative activity against human BXPC-3 cells assessed as inhibition of cell growth incubated for 24 hrs by WST-1 assay; assay type: functional, cell-based; conditions: BXPC-3, 24 h
[3] = tested on: BXPC-3; test: Antiproliferative activity against human BXPC-3 cells assessed as inhibition of cell growth incubated for 72 hrs by WST-1 assay; assay type: functional, cell-based; conditions: BXPC-3, 72 h
[4] = 1-octanol/PBS partition coefficient, logD of the compound at pH 7.4 by HPLC analysis; assay type: physicochemical
[5] = tested on: BXPC-3; test: Induction of apoptosis in human BXPC-3 cells assessed as increase in intensity of lipid-associated SRS bands at 30 uM incubated for 24 hrs by SRS microspectroscopic analysis; assay type: functional, cell-based
[6] = tested on: BXPC-3; test: Induction of apoptosis in human BXPC-3 cells assessed as accretion of lipid-like substances at 30 uM incubated for 24 hrs by SRS microspectroscopic analysis; assay type: functional, cell-based
[7] = tested on: BXPC-3; test: Induction of apoptosis in human BXPC-3 cells assessed as enlargement of cells at 30 uM incubated for 24 hrs by SRS microspectroscopic analysis; assay type: functional, cell-based
[8] = Downregulation of phosphorylated ERK protein expression in human BXPC-3 cells at 10 to 30 uM incubated for 24 hrs by Western blot analysis relative to control; assay type: functional; conditions: dose 10-30 µM
[9] = tested on: BXPC-3; test: Induction of apoptosis in human BXPC-3 cells assessed as membrane blebbing at 30 uM incubated for 24 hrs by SRS microspectroscopic analysis; assay type: functional, cell-based
[10] = tested on: BXPC-3; test: Induction of apoptosis in human BXPC-3 cells assessed as decrease in intensity of protein-associated SRS bands at 30 uM incubated for 24 hrs by SRS microspectroscopic analysis; assay type: functional, cell-based
[11] = tested on: BXPC-3; test: Induction of mitochodrial fission in human BXPC-3 cells assessed as reduction in mitochondrial length at 30 uM incubated for 24 hrs by MitoTracker Red CMX ROS staining based confocal microscopic analysis relative to control; assay type: functional; parameters: scale not given: the % may be the effect or the level left
[12] = tested on: BXPC-3; test: Induction of apoptosis in human BXPC-3 cells assessed as increase in number of dead cells at 30 uM incubated for 24 hrs by EthD-1 staining based fluorescence microscopic analysis relative to control; assay type: functional
[13] = tested on: BXPC-3; test: Induction of apoptosis in human BXPC-3 cells assessed as nuclear condensation at 30 uM incubated for 24 hrs by Hoechst staining based confocal microscopic analysis; assay type: functional, cell-based
[14] = Upregulation of phosphorylated p38 protein expression in human BXPC-3 cells at 10 to 30 uM incubated for 24 hrs by Western blot analysis relative to control; assay type: functional; conditions: dose 10-30 µM
[15] = tested on: BXPC-3; test: Induction of apoptosis in human BXPC-3 cells assessed as porous appearance at 30 uM incubated for 24 hrs by SRS microspectroscopic analysis; assay type: functional, cell-based
[16] = tested on: BXPC-3; test: Induction of apoptosis in human BXPC-3 cells assessed as increase in BAX/Bcl-2 mRNA expression ratio at 30 uM incubated for 24 hrs by RT-PCR analysis relative to control; assay type: functional
[17] = tested on: BXPC-3; test: Induction of apoptosis in human BXPC-3 cells assessed as increase in cleaved PARP level at 30 uM incubated for 24 hrs by Western blot analysis; assay type: functional, cell-based
[18] = tested on: BXPC-3; test: Induction of apoptosis in human BXPC-3 cells assessed as increase in cleaved caspase 3 level at 10 to 30 uM incubated for 24 hrs by Western blot analysis; assay type: functional, cell-based; conditions: dose 10-30 µM
[19] = tested on: BXPC-3; test: Induction of apoptosis in human BXPC-3 cells assessed as decrease in number of anti-Ki67 cells at 30 uM incubated for 24 hrs by anti-Ki67 staining based confocal microscopic analysis; assay type: functional, cell-based
[20] = tested on: BXPC-3; test: Induction of apoptosis in human BXPC-3 cells assessed as increase in lipid level at 10 uM incubated for 24 hrs by SRS microspectroscopic analysis; assay type: functional, cell-based
[21] = tested on: BXPC-3; test: Induction of apoptosis in human BXPC-3 cells assessed as increase in cleaved caspase 3 level at 10 uM incubated for 24 hrs by Western blot analysis; assay type: functional, cell-based
[22] = tested on: BXPC-3; test: Induction of apoptosis in human BXPC-3 cells assessed as increase in cleaved PARP level at 10 uM incubated for 24 hrs by Western blot analysis; assay type: functional, cell-based
[23] = tested on: BXPC-3; test: Induction of mitochodrial fission in human BXPC-3 cells assessed as reduction in mitochondrial length at 10 uM incubated for 24 hrs by MitoTracker Red CMX ROS staining based confocal microscopic analysis; assay type: functional, cell-based

Structure (SMILES): COc1ccc(O)c(C(=O)/C=C/c2cccc(OC)c2OC)c1
- IC50 [1]: 27.1 µM
- IC50 [2]: 26.3 µM
- IC50 [3]: 24 µM
- logD [4]: 2.98

Structure (SMILES): COc1ccc(OCC(O)CO)c(C(=O)/C=C/c2cccc(OC)c2OC)c1 (stereo not given)
- IC50 [1]: 11.7 µM
- Activity [5]: Active
- IC50 [2]: 32.1 µM
- Activity [6]: Active
- Activity [7]: Active
- Activity [8]: 50%
- Activity [9]: Active
- Activity [10]: Active
- Activity [11]: 16%
- Activity [12]: 256.18%
- Activity [13]: Active
- Activity [14]: 367.3%
- IC50 [3]: 7.94 µM
- Activity [15]: Active
- Activity [16]: 217.4%
- Activity [17]: Active
- logD [4]: 2.42
- Activity [18]: Active
- Activity [19]: Active

Structure (SMILES): Nc1ccn([C@@H]2O[C@H](CO)[C@@H](O)C2(F)F)c(=O)n1 [GEMCITABINE]
- Activity [20]: Active
- IC50 [1]: 6.83 µM
- IC50 [2]: 12.2 µM
- Activity [21]: Active
- Activity [22]: Active
- Activity [23]: Active
- IC50 [3]: 5.51 µM
